Laboratory results as given in the NIST ThermoML archive (doi:10.1016/j.jct.2017.07.040).

Assay: mn = molality of the nth substance listed, in mol/kg
Settings: 101 kPa, Liquid; for viscosity: Capillary tube (Ostwald / Ubbelohde) method; for speed of sound: Frequency=6 MHz, Linear variable-path acoustic interferometer; for mass density: Vibrating tube method

CC1(C)S[C@@H]2[C@H](NC(=O)[C@H](N)c3ccccc3)C(=O)N2[C@H]1C(=O)[O-].[Na+] [Ampicillin Sodium] + O
Settings | mass density [kg/m3] | speed of sound [m/s] | viscosity [mPa·s]
293.15 K, m1 = 0.035 | 1002.84 | 1487.5 | 1.034
293.15 K, m1 = 0.055 | 1005.4 | 1492 | 1.072
293.15 K, m1 = 0.075 | 1007.9 | 1496.1 | 1.109
293.15 K, m1 = 0.095 | 1010.54 | 1501.3 | 1.113
298.15 K, m1 = 0.035 | 1001.64 | 1501.6 | 0.9268
298.15 K, m1 = 0.055 | 1004.16 | 1505.6 | 0.9663
298.15 K, m1 = 0.075 | 1006.66 | 1509.6 | 1.008
298.15 K, m1 = 0.095 | 1009.25 | 1515 | 1.05
303.15 K, m1 = 0.035 | 1000.19 | 1514 | 0.8381
303.15 K, m1 = 0.055 | 1002.69 | 1518.1 | 0.8814
303.15 K, m1 = 0.075 | 1005.1 | 1522.1 | 0.9262
303.15 K, m1 = 0.095 | 1007.7 | 1526 | 0.9736
308.15 K, m1 = 0.035 | 998.531 | 1524.7 | 0.7612
308.15 K, m1 = 0.055 | 1001.01 | 1529 | 0.8077
308.15 K, m1 = 0.075 | 1003.04 | 1533 | 0.8543
308.15 K, m1 = 0.095 | 1005.84 | 1535.7 | 0.9016
313.15 K, m1 = 0.035 | 996.661 | 1533.8 | 0.6978
313.15 K, m1 = 0.055 | 999.128 | 1538 | 0.748
313.15 K, m1 = 0.075 | 1000.49 | 1542.5 | 0.7967
313.15 K, m1 = 0.095 | 1003.74 | 1546.1 | 0.8021

N[C@@H](Cc1c[nH]cn1)C(=O)O [L-histidine] + O
Settings | mass density [kg/m3] | speed of sound [m/s] | viscosity [mPa·s]
293.15 K, m1 = 0.01 | 998.806 | 1483.9 | 1.009
293.15 K, m1 = 0.03 | 999.974 | 1485.7 | 1.016
293.15 K, m1 = 0.05 | 1001.14 | 1487.5 | 1.022
293.15 K, m1 = 0.07 | 1002.32 | 1489.3 | 1.028
293.15 K, m1 = 0.09 | 1003.5 | 1491.1 | 1.034
293.15 K, m1 = 0.11 | 1004.68 | 1492.8 | 1.04
298.15 K, m1 = 0.01 | 997.635 | 1498.2 | 0.8956
298.15 K, m1 = 0.03 | 998.775 | 1500 | 0.9014
298.15 K, m1 = 0.05 | 999.914 | 1501.7 | 0.9061
298.15 K, m1 = 0.07 | 1001.05 | 1503.2 | 0.9107
298.15 K, m1 = 0.09 | 1002.19 | 1505 | 0.9156
298.15 K, m1 = 0.11 | 1003.33 | 1506.9 | 0.9197
303.15 K, m1 = 0.01 | 996.232 | 1510.3 | 0.8015
303.15 K, m1 = 0.03 | 997.346 | 1512 | 0.8061
303.15 K, m1 = 0.05 | 998.458 | 1513.7 | 0.8103
303.15 K, m1 = 0.07 | 999.567 | 1515.4 | 0.8143
303.15 K, m1 = 0.09 | 1000.68 | 1517 | 0.8178
303.15 K, m1 = 0.11 | 1001.79 | 1518.7 | 0.8217
308.15 K, m1 = 0.01 | 994.608 | 1521 | 0.7223
308.15 K, m1 = 0.03 | 995.696 | 1522.7 | 0.7259
308.15 K, m1 = 0.05 | 996.785 | 1524.3 | 0.7292
308.15 K, m1 = 0.07 | 997.874 | 1525.9 | 0.7323
308.15 K, m1 = 0.09 | 998.961 | 1527.5 | 0.7356
308.15 K, m1 = 0.11 | 1000.05 | 1529.1 | 0.7389
313.15 K, m1 = 0.01 | 992.782 | 1530.1 | 0.6553
313.15 K, m1 = 0.03 | 993.848 | 1531.7 | 0.6584
313.15 K, m1 = 0.05 | 994.918 | 1533.2 | 0.6613
313.15 K, m1 = 0.07 | 995.988 | 1534.8 | 0.6638
313.15 K, m1 = 0.09 | 997.06 | 1536.3 | 0.6669
313.15 K, m1 = 0.11 | 998.13 | 1537.8 | 0.6692

O [water] + CC1(C)S[C@@H]2[C@H](NC(=O)[C@H](N)c3ccccc3)C(=O)N2[C@H]1C(=O)[O-].[Na+]
m2 = 0
Settings | mass density [kg/m3] | speed of sound [m/s] | viscosity [mPa·s]
293.15 K | – | – | 1.002
298.15 K | – | – | 0.8903
303.15 K | – | – | 0.7973
308.15 K | 994.063 | – | 0.719
313.15 K | – | 1529.3 | 0.6526

O [water] + N[C@@H](Cc1c[nH]cn1)C(=O)O
m2 = 0
Settings | mass density [kg/m3] | speed of sound [m/s] | viscosity [mPa·s]
293.15 K | – | – | 1.002
298.15 K | – | – | 0.8903
303.15 K | – | – | 0.7973
308.15 K | 994.063 | – | 0.719
313.15 K | – | 1529.3 | 0.6526
